Measurements taken from article PMC10890502, “Prevention of Protease-Induced Degradation of Desmoplakin via Small Molecule Binding” (Journal of Personalized Medicine, 2024).
Changes are numbered by the printed parent chain. Read-outs that look alike come from different tables or passages of the source.

Legend:
Assay in all cases: biochemical
sDSP (DSP178–627) [1] = molecular target: T1, sDSP (DSP178–627) (Homo sapiens, UniProt P15924, R451G); set-up: FITC-sDSP degradation by calpain (1:20), fluorescence polarization after 60 min, per cent of calpain-only control; details: degradation rate of DSP R451G by calpain; read-out: % of control remaining
T1 construct: gene DSP; N-terminal spectrin repeat/SH3 fragment, residues 178-627; pGEX-1 GST fusion cut with thrombin, E. coli BL21(DE3); fluorescein-5-maleimide label on exposed cysteines (C405, C524)
T1 sequence (P15924 178-627 R451G): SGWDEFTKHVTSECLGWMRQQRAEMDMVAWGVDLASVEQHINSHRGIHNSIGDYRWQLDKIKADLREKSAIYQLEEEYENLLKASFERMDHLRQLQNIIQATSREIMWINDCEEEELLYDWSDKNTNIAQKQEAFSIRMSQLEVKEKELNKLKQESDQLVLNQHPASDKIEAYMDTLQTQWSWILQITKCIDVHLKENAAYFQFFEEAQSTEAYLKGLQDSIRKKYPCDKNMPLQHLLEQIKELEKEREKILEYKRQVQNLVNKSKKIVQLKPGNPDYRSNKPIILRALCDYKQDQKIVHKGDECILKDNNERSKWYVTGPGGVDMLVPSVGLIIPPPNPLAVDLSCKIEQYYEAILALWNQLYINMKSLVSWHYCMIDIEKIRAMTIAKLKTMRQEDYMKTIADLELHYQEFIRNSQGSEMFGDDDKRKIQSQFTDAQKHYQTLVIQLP
Protocol: (§1) Fluorescence Polarization (FP) assays were conducted in […] format using a BioTek Synergy H4 plate reader with polarization capacity (Agilent; Savage, MD, USA). All samples were run at 25 °C using PBS pH 7.4, 1 mM DTT, 10 mM CaCl2, 5% DMSO, and […] FITC- DSP178–627, with 500 μM of each drug. Trypsin, chymotrypsin, or calpain at either 1:50, 1:50, or 1:20 concentration was added directly before data collection with an average void time of 2 min. Control experiments in each plate were conducted in triplicate and consisted of DSP178–627 + DMSO + protease as a positive control and DSP178–627 + DMSO + [compound left out] + protease as a negative control. Only plates that had functional positive and negative controls were used in data analysis. Samples were excited at 485 nm, and polarization was monitored at 528 nm. Data were collected at 5 min increments for 1–3 h. […] Therefore, we next tested whether these 62 compounds also prevent wildtype and variant DSP degradation in the presence of calpain. […] (A) Normalized fluorescent polarization of WT and sDSP variants in the presence of a 1:20 ratio of calpain plus 500 μM drug, as compared to calpain alone (black) (B) Identity and chemical structure of the six best-performing compounds.

sDSP S507F = molecular target: T2, sDSP S507F (Homo sapiens, UniProt P15924, S507F); set-up: FITC-sDSP degradation by calpain (1:20), fluorescence polarization after 60 min, per cent of calpain-only control; details: degradation rate of DSP S507F by calpain; read-out: % of control remaining
T2 construct: gene DSP; N-terminal fragment, residues 178-627
T2 sequence (P15924 whole entry S507F, the tested form may be a part): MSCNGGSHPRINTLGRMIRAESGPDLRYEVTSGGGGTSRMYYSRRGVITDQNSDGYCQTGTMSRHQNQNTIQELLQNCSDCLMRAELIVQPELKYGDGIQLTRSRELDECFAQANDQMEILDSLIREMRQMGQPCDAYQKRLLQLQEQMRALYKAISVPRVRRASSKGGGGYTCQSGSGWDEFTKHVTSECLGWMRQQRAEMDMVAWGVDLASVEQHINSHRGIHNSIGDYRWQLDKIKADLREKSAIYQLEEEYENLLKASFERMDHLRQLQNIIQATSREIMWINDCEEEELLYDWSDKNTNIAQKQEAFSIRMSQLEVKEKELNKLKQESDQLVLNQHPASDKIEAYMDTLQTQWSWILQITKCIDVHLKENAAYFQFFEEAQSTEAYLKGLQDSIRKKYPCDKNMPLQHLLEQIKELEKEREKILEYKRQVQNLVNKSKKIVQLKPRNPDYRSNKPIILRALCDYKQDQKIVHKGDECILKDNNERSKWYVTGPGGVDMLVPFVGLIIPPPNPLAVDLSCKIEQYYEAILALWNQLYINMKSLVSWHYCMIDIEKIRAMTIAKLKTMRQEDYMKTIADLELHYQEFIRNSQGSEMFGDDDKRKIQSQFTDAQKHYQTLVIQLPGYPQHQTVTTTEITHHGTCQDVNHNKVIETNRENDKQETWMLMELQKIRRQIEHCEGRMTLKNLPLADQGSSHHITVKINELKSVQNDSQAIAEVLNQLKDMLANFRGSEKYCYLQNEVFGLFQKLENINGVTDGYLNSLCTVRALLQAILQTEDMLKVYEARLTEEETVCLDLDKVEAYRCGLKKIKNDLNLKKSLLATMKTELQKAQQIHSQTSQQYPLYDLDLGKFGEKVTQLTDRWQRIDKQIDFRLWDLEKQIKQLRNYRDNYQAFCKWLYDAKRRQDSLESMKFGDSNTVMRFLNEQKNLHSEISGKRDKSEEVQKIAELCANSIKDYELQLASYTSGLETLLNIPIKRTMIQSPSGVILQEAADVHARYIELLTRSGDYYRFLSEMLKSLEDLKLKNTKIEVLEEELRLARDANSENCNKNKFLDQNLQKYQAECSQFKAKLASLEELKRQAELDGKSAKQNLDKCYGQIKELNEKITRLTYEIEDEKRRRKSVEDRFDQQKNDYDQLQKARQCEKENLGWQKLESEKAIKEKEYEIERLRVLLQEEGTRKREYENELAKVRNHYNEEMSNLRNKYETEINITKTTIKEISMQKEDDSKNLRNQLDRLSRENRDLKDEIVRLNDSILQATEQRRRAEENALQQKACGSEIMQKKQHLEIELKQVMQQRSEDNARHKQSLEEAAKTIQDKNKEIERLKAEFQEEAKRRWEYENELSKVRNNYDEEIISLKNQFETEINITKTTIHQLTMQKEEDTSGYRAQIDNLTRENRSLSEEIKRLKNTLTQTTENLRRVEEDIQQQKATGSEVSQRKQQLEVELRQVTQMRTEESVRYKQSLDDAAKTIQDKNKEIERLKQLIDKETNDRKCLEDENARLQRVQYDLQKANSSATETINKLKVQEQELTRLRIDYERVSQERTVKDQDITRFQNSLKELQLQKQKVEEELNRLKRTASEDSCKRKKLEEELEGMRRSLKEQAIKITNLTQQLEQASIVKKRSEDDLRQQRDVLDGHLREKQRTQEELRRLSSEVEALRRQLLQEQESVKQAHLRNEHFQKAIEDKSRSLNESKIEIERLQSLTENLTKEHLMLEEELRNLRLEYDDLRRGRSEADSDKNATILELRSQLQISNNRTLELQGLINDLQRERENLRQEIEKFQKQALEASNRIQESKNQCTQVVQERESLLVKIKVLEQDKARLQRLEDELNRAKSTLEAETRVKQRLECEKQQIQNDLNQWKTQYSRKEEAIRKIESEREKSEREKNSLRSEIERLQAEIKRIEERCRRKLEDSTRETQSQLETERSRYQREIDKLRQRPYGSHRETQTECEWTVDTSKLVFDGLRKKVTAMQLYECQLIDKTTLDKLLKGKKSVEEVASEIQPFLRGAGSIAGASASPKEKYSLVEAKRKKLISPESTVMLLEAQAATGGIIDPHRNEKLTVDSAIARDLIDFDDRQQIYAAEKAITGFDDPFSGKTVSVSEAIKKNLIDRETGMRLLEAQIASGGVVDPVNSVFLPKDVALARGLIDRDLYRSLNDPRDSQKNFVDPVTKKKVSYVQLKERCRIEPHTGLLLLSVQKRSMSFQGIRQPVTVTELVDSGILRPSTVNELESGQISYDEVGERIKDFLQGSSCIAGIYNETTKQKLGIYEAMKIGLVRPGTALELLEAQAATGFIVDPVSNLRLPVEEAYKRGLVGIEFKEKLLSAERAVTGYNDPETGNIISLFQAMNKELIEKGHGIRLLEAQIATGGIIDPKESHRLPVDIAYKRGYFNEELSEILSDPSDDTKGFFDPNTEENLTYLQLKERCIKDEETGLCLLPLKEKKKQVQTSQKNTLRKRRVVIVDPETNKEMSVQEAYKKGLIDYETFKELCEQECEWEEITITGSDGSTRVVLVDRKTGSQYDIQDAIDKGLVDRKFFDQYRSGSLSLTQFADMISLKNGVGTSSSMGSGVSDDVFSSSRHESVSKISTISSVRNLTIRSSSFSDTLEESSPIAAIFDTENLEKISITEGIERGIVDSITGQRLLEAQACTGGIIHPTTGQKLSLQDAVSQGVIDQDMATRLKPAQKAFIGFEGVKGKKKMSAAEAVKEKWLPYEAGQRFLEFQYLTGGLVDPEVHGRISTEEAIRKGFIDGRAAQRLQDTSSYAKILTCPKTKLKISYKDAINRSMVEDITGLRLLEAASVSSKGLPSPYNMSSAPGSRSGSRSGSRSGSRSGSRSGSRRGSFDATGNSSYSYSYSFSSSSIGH
Protocol: as §1

sDSP (DSP178–627) [2] = molecular target: T3, sDSP (DSP178–627) (Homo sapiens, UniProt P15924, S442F); set-up: FITC-sDSP degradation by calpain (1:20), fluorescence polarization after 60 min, per cent of calpain-only control; details: degradation rate of DSP S442F by calpain; read-out: % of control remaining
T3 construct: gene DSP; N-terminal spectrin repeat/SH3 fragment, residues 178-627; pGEX-1 GST fusion cut with thrombin, E. coli BL21(DE3); fluorescein-5-maleimide label on exposed cysteines (C405, C524)
T3 sequence (P15924 178-627 S442F): T1 sequence (P15924 178-627 R451G) with S265F, G274R
Protocol: as §1

sDSP (DSP178–627) [3] = molecular target: T4, sDSP (DSP178–627) (Homo sapiens, UniProt P15924); set-up: FITC-sDSP degradation by calpain (1:20), fluorescence polarization after 60 min, per cent of calpain-only control; details: degradation rate of DSP WT by calpain; read-out: % of control remaining
T4 construct: gene DSP; N-terminal spectrin repeat/SH3 fragment, residues 178-627; pGEX-1 GST fusion cut with thrombin, E. coli BL21(DE3); fluorescein-5-maleimide label on exposed cysteines (C405, C524)
T4 sequence (P15924 178-627): T1 sequence (P15924 178-627 R451G) with G274R
Protocol: as §1

sDSP (DSP178–627) [4] = molecular target: T3, sDSP (DSP178–627); set-up: FITC-sDSP S442F degradation by trypsin (1:50), fluorescence polarization after 60 min, per cent of protease-only control; details: degradation rate of DSP S442F by trypsin; read-out: % of control remaining
Protocol: Fluorescence Polarization (FP) assays were conducted in […] format using a BioTek Synergy H4 plate reader with polarization capacity (Agilent; Savage, MD, USA). All samples were run at 25 °C using PBS pH 7.4, 1 mM DTT, 10 mM CaCl2, 5% DMSO, and […] FITC- DSP178–627, with 500 μM of each drug. Trypsin, chymotrypsin, or calpain at either 1:50, 1:50, or 1:20 concentration was added directly before data collection with an average void time of 2 min. Control experiments in each plate were conducted in triplicate and consisted of DSP178–627 + DMSO + protease as a positive control and DSP178–627 + DMSO + [compound left out] + protease as a negative control. Only plates that had functional positive and negative controls were used in data analysis. Samples were excited at 485 nm, and polarization was monitored at 528 nm. Data were collected at 5 min increments for 1–3 h. A mutation that partially occludes the DSP calpain cleavage site rescues DSP protein levels. We next assessed whether protease-dependent cleavage can also be blocked by small molecules. We screened 2496 FDA-approved drugs for their ability to prevent trypsin-dependent cleavage of sDSP S442F in our FP assay (Figure 3A). […] No change in fluorescence polarization after an hour is indicative of 0% protein degradation rate, as occurs in the [compound left out] positive control. […] (A) sDSP S442F degradation in the presence of trypsin plus 2496 compounds from the Cayman chemical “FDA library”. A degradation rate of 100% indicates the same desmoplakin degradation rate with and without the addition of 500 μM drug while a 0% rate indicates no degradation, as judged by fluorescent polarization values after 1 h. A trypsin-only control and a trypsin + [compound left out] control is indicated. Protection (red lines) was arbitrarily set between 33% and −10%. […] (B) Example of how the data in A was generated.

COc1ccc(-c2cc(=O)c3c(O)cc(O)cc3o2)cc1O [Diosmetin]
remaining activity at 500 µM (sDSP (DSP178–627) [1]): 30% | remaining activity at 500 µM (sDSP S507F): 0% | remaining activity at 500 µM (sDSP (DSP178–627) [2]): 73% | remaining activity at 500 µM (sDSP (DSP178–627) [3]): 84% | remaining activity at 500 µM (sDSP (DSP178–627) [4]): 18%
